Values of other authors, collected in publication PMC5669518 (Biochemistry and Biophysics Reports, 2015).

Test system: NEU2
Details: active form of oseltamivir; ref [16], [17]

SMILES: CCOC(=O)C1=C[C@@H](OC(CC)CC)[C@H](NC(C)=O)[C@@H](N)C1 [oseltamivir]
- Inhibitory effect on NEU2: does not exhibit the inhibitory effect
